Measurements from US10308639B2, “Phosphatidylinositol 3-kinase inhibitors” (Gilead Sciences, Inc., priority 2014, dated 2019).
Like-named read-outs stand apart in the source and are kept apart here.

Legend:
Assay type in all cases: biochemical
PI3Kδ = target: T1, PI3Kδ (Homo sapiens, UniProt O00329); assay: TR-FRET enzymatic activity assay, PI3Kδ
T1 construct: made in house

PI3Kβ = target: T2, PI3Kβ (Homo sapiens, UniProt P42338); assay: TR-FRET enzymatic activity assay, PI3Kβ; conditions: Table 2; TR-FRET, 2x Km ATP, 30 minutes at 25° C.
T2 construct: made in house

PI3Kγ = target: T3, PI3Kγ (Homo sapiens, UniProt P48736); assay: TR-FRET enzymatic activity assay, PI3Kγ; conditions: read-out: PI3Kγ IC50
T3 construct: made in house
Summary of the method: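 Enzymatic activity against the PI3K isoforms was measured using a time-resolved fluorescence resonance energy transfer (TR-FRET) assay.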

[1] = Table 2, TR-FRET, 2x Km ATP, 30 minutes at 25° C.

T3 sequence (P48736 whole entry): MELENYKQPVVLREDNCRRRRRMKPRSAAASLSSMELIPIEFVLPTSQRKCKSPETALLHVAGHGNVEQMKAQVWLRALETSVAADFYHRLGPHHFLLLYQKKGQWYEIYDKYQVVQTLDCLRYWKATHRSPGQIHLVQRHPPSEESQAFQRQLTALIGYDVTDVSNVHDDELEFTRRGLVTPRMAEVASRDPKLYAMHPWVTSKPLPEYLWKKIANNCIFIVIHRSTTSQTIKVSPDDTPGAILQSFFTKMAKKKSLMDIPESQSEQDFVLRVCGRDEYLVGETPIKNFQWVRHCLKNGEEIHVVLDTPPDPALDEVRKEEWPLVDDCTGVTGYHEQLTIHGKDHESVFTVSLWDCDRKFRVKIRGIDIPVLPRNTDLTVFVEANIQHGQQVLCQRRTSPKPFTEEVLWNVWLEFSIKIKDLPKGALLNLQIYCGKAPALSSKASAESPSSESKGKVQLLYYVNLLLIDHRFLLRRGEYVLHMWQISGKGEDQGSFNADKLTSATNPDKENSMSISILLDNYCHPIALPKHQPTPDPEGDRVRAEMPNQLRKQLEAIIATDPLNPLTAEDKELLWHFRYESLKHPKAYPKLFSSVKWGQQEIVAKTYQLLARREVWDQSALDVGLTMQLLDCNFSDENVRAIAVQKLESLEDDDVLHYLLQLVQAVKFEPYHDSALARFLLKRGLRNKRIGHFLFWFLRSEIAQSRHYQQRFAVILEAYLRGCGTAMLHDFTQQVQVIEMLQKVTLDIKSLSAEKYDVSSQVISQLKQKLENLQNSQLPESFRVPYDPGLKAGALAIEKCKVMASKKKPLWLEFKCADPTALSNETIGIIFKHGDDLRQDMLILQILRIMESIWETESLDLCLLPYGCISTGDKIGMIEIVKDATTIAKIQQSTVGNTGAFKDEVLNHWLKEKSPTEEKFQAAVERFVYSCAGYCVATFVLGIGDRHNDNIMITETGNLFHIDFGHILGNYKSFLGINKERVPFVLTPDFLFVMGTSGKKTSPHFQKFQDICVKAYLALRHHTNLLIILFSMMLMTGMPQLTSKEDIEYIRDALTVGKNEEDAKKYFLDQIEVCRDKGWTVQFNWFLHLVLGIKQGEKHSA
T1 sequence (O00329 whole entry): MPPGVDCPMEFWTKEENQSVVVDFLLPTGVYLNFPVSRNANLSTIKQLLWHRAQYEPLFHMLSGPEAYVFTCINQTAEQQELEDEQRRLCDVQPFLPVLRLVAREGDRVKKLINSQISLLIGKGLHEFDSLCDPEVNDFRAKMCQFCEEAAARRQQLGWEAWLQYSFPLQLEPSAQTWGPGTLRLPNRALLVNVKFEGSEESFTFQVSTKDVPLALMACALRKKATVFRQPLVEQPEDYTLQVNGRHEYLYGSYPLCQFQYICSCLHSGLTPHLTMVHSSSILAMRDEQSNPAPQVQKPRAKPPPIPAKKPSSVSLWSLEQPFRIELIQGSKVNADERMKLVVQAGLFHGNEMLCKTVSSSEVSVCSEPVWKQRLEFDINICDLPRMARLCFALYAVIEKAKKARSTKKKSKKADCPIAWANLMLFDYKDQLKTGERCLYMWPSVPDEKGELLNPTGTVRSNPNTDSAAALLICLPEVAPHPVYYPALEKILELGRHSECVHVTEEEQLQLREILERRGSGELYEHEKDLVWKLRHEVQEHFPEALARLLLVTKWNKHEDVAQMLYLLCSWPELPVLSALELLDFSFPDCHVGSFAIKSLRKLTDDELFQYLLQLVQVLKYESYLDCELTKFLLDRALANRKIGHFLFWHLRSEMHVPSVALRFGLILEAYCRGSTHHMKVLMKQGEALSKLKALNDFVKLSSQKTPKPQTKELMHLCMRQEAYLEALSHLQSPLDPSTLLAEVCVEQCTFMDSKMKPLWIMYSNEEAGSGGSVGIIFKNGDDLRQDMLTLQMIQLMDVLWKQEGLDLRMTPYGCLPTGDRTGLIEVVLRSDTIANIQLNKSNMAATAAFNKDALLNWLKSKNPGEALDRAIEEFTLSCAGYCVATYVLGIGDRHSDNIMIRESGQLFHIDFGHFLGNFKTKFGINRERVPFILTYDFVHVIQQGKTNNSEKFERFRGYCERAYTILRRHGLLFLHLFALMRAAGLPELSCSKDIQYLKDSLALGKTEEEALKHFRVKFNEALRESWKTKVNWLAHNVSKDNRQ
T1 sequence (P27986 whole entry partner): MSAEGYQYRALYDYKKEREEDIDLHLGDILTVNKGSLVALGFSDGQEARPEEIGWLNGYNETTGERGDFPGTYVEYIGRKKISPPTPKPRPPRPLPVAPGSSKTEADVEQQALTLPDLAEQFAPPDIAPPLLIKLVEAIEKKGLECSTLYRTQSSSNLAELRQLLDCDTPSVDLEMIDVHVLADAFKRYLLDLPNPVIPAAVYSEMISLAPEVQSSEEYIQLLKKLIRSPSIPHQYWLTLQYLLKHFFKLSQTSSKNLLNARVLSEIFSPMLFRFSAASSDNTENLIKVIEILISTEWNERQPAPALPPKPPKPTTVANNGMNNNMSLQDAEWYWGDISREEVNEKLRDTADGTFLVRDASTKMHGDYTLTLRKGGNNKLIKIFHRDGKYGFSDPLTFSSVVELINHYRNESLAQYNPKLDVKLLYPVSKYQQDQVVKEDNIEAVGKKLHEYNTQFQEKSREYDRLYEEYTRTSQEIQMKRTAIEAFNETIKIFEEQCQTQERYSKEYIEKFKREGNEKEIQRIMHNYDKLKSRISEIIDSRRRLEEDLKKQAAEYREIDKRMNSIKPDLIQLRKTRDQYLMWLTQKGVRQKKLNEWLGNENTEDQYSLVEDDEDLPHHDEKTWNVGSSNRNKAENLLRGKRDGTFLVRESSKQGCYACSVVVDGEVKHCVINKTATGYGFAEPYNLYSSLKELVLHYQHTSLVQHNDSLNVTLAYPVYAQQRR
T2 sequence (P42338 whole entry): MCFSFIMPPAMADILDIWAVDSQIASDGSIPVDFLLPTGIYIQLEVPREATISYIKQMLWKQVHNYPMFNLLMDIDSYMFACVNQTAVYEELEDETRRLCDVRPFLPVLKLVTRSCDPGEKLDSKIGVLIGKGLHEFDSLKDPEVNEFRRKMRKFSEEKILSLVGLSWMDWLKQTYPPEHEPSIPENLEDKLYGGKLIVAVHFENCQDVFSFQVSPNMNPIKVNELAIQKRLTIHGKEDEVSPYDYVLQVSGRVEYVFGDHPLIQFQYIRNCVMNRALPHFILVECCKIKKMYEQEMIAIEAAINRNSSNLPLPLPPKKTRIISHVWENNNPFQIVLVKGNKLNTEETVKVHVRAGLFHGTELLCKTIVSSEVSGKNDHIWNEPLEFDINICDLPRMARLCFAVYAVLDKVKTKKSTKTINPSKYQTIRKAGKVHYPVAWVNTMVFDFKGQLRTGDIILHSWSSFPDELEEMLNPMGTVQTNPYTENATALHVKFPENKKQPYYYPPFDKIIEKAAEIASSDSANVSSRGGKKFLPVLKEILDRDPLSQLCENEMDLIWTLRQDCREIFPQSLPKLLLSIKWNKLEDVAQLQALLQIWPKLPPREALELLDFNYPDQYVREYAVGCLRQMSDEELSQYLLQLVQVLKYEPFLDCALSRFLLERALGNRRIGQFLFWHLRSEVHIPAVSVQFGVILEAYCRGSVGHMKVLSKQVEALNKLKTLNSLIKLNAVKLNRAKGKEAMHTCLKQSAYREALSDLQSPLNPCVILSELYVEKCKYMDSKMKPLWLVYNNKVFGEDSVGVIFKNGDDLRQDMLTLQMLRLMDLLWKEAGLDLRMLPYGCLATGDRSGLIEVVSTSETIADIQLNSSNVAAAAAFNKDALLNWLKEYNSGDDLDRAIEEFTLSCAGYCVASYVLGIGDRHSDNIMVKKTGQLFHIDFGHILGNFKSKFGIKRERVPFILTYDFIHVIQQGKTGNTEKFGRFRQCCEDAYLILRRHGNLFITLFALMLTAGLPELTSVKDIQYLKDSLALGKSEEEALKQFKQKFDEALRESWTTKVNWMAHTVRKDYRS
T2 sequence (P27986 whole entry partner): as the sequence (P27986 whole entry partner) above

Compound	IC50 (PI3Kδ; [1])	IC50 (PI3Kβ)	IC50 (PI3Kγ; [1])	IC50 (PI3Kγ)	IC50 (PI3Kδ)
O=c1c2c(Cl)ccc(Cl)c2nc([C@@H](Nc2ncnc3scnc23)C2CC2)n1-c1cn[nH]c1 [Compound 38, (S)-5,8-dichloro-2-(cyclopropyl(thiazolo[5,4-d]pyrimidin-7-ylamino)methyl)-3-(1H-pyrazol-4-yl)quinazolin-4(3H)-one]	4 nM	9 nM	1100 nM		
CC[C@H](Nc1ncnc2scnc12)c1nc2c(Cl)ccc(Cl)c2c(=O)n1-c1cn[nH]c1 [Compound 39, (S)-5,8-dichloro-3-(1H-pyrazol-4-yl)-2-(1-(thiazolo[5,4-d]pyrimidin-7-ylamino)propyl)quinazolin-4(3H)-one]	22 nM	170 nM	4700 nM		
CC[C@H](Nc1ncnn2ccnc12)c1nc2c(Cl)ccc(Cl)c2c(=O)n1-c1cn[nH]c1 [Compound 40, (S)-5,8-dichloro-2-(1-(imidazo[2,1-f][1,2,4]triazin-4-ylamino)propyl)-3-(1H-pyrazol-4-yl)quinazolin-4(3H)-one]	38 nM	280 nM	8700 nM		
CC[C@H](Nc1ncnc2cccnc12)c1nc2c(Cl)ccc(Cl)c2c(=O)n1-c1cn[nH]c1 [Compound 41, (S)-5,8-dichloro-3-(1H-pyrazol-4-yl)-2-(1-(pyrido[3,2-d]pyrimidin-4-ylamino)propyl)quinazolin-4(3H)-one]	13 nM	88 nM	1600 nM		
CC[C@H](Nc1ncnc2ccc(Cl)nc12)c1nc2c(Cl)ccc(Cl)c2c(=O)n1-c1cn[nH]c1 [Compound 42, (S)-5,8-dichloro-2-(1-((6-chloropyrido[3,2-d]pyrimidin-4-yl)amino)propyl)-3-(1H-pyrazol-4-yl)quinazolin-4(3H)-one]	10 nM	77 nM	460 nM		
CC[C@H](Nc1ncnn2ccnc12)c1nc2c(Cl)ccc(Cl)c2c(=O)n1-c1cc[nH]n1 [Compound 43, (S)-5,8-dichloro-2-(1-(imidazo[2,1-f][1,2,4]triazin-4-ylamino)propyl)-3-(1H-pyrazol-3-yl)quinazolin-4(3H)-one]	9 nM	39 nM		> 10000 nM	
CC[C@H](Nc1ncnc2cccnc12)c1nc2c(Cl)ccc(Cl)c2c(=O)n1-c1cc[nH]n1 [Compound 44, (S)-5,8-dichloro-3-(1H-pyrazol-3-yl)-2-(1-(pyrido[3,2-d]pyrimidin-4-ylamino)propyl)quinazolin-4(3H)-one]	10 nM	84 nM		> 10000 nM	
CC[C@H](Nc1ncnc2ccc(Cl)nc12)c1nc2c(Cl)ccc(Cl)c2c(=O)n1-c1cc[nH]n1 [Compound 45, (S)-5,8-dichloro-2-(1-((6-chloropyrido[3,2-d]pyrimidin-4-yl)amino)propyl)-3-(1H-pyrazol-3-yl)quinazolin-4(3H)-one]	4 nM	15 nM		> 10000 nM	
CC[C@H](Nc1ncnc2scnc12)c1nc2c(Cl)ccc(Cl)c2c(=O)n1-c1cc[nH]n1 [Compound 46, (S)-5,8-dichloro-3-(1H-pyrazol-3-yl)-2-(1-(thiazolo[5,4-d]pyrimidin-7-ylamino)propyl)quinazolin-4(3H)-one]	4 nM	18 nM		> 10000 nM	
O=c1c2c(Cl)cccc2nc([C@H](COCc2ccccc2)Nc2ncnc3scnc23)n1-c1cn[nH]c1 [Compound 47, (R)-2-(2-(benzyloxy)-1-(thiazolo[5,4-d]pyrimidin-7-ylamino)ethyl)-5-chloro-3-(1H-pyrazol-4-yl)quinazolin-4(3H)-one]	11 nM	11 nM	2400 nM		
O=c1c2c(Cl)cccc2nc([C@H](COCc2ccccc2)Nc2ncnc3scnc23)n1-c1cc[nH]n1 [Compound 48, (R)-2-(2-(benzyloxy)-1-(thiazolo[5,4-d]pyrimidin-7-ylamino)ethyl)-5-chloro-3-(1H-pyrazol-3-yl)quinazolin-4(3H)-one]	8 nM	9 nM		> 10000 nM	
CC[C@H](Nc1nc(N)nc(N)c1C#N)c1nc2cccc(Cl)c2c(=O)n1-c1cc(CCCOC)[nH]n1 [Compound 49, (S)-2,4-diamino-6-((1-(5-chloro-3-(5-(3-methoxypropyl)-1H-pyrazol-3-yl)-4-oxo-3,4-dihydroquinazolin-2-yl)propyl)amino)pyrimidine-5-carbonitrile]	9 nM	150 nM	3500 nM		
O=c1c2c(Cl)cccc2nc([C@H](CO)Nc2ncnc3scnc23)n1-c1cn[nH]c1 [Compound 50, (R)-5-chloro-2-(2-hydroxy-1-(thiazolo[5,4-d]pyrimidin-7-ylamino)ethyl)-3-(1H-pyrazol-4-yl)quinazolin-4(3H)-one]	7 nM	47 nM	1800 nM		
O=c1c2c(Cl)cccc2nc([C@H](CO)Nc2ncnc3scnc23)n1-c1cc[nH]n1 [Compound 51, (R)-5-chloro-2-(2-hydroxy-1-(thiazolo[5,4-d]pyrimidin-7-ylamino)ethyl)-3-(1H-pyrazol-3-yl)quinazolin-4(3H)-one]	2 nM	9 nM		> 10000 nM	
CC[C@H](Nc1ncnc2[nH]cnc12)c1nc2c(Cl)ccc(Cl)c2c(=O)n1-c1cc[nH]n1 [Compound 52, (S)-2-(1-((9H-purin-6-yl)amino)propyl)-5,8-dichloro-3-(1H-pyrazol-3-yl)quinazolin-4(3H)-one]	6 nM	70 nM		> 10000 nM	
CC[C@H](Nc1nc(F)nc2[nH]cnc12)c1nc2c(Cl)ccc(Cl)c2c(=O)n1-c1cc[nH]n1 [Compound 53, (S)-5,8-dichloro-2-(1-((2-fluoro-9H-purin-6-yl)amino)propyl)-3-(1H-pyrazol-3-yl)quinazolin-4(3H)-one]	13 nM	76 nM		> 10000 nM	
CC[C@H](Nc1ncnc2sccc12)c1nc2c(Cl)ccc(Cl)c2c(=O)n1-c1cc[nH]n1 [Compound 54, (S)-5,8-dichloro-3-(1H-pyrazol-3-yl)-2-(1-(thieno[2,3-d]pyrimidin-4-ylamino)propyl)quinazolin-4(3H)-one]	18 nM	240 nM		> 10000 nM	
CC[C@H](Nc1nc(F)nc2[nH]cnc12)c1nc2c(Cl)ccc(Cl)c2c(=O)n1-c1cn[nH]c1 [Compound 55, (S)-5,8-dichloro-2-(1-((2-fluoro-9H-purin-6-yl)amino)propyl)-3-(1H-pyrazol-4-yl)quinazolin-4(3H)-one]	65 nM	570 nM		> 10000 nM	
CC[C@H](Nc1ncnc2sccc12)c1nc2c(Cl)ccc(Cl)c2c(=O)n1-c1cn[nH]c1 [Compound 56, (S)-5,8-dichloro-3-(1H-pyrazol-4-yl)-2-(1-(thieno[2,3-d]pyrimidin-4-ylamino)propyl)quinazolin-4(3H)-one]	88 nM	1300 nM		> 10000 nM	
CC[C@H](Nc1ncnc2[nH]cnc12)c1nc2c(Cl)ccc(Cl)c2c(=O)n1-c1cn[nH]c1 [Compound 57, (S)-2-(1-((9H-purin-6-yl)amino)propyl)-5,8-dichloro-3-(1H-pyrazol-4-yl)quinazolin-4(3H)-one]	29 nM	380 nM		> 10000 nM	
CC[C@H](Nc1ncnc2[nH]cc(F)c12)c1nc2c(Cl)ccc(Cl)c2c(=O)n1-c1cn[nH]c1 [Compound 58, (S)-5,8-dichloro-2-(1-((5-fluoro-7H-pyrrolo[2,3-d]pyrimidin-4-yl)amino)propyl)-3-(1H-pyrazol-4-yl)quinazolin-4(3H)-one]	14 nM	320 nM	5900 nM		
CC[C@H](Nc1ncnc2[nH]cc(F)c12)c1nc2c(Cl)ccc(Cl)c2c(=O)n1-c1cc[nH]n1 [Compound 59, (S)-5,8-dichloro-2-(1-((5-fluoro-7H-pyrrolo[2,3-d]pyrimidin-4-yl)amino)propyl)-3-(1H-pyrazol-3-yl)quinazolin-4(3H)-one]		97 nM		> 10000 nM	2 nM
C[C@H](Nc1ncnc2sccc12)c1nc2cccc(Cl)c2c(=O)n1-c1cc[nH]n1 [Compound 60, (S)-5-chloro-3-(1H-pyrazol-3-yl)-2-(1-(thieno[2,3-d]pyrimidin-4-ylamino)ethyl)quinazolin-4(3H)-one]	2 nM	43 nM		> 10000 nM	
C[C@H](Nc1ncnc2ccoc12)c1nc2cccc(Cl)c2c(=O)n1-c1cc[nH]n1 [Compound 61, (S)-5-chloro-2-(1-(furo[3,2-d]pyrimidin-4-ylamino)ethyl)-3-(1H-pyrazol-3-yl)quinazolin-4(3H)-one]	3 nM	20 nM	8100 nM		
CC[C@H](Nc1ncnc2ccoc12)c1nc2c(Cl)ccc(Cl)c2c(=O)n1-c1cc[nH]n1 [Compound 62, (S)-5,8-dichloro-2-(1-(furo[3,2-d]pyrimidin-4-ylamino)propyl)-3-(1H-pyrazol-3-yl)quinazolin-4(3H)-one]	9 nM	120 nM		> 10000 nM	
CC[C@H](Nc1nc(N)nc(N)c1Cl)c1nc2cccc(Cl)c2c(=O)n1-c1cc[nH]n1 [Compound 65, (S)-5-chloro-2-(1-((2,6-diamino-5-chloropyrimidin-4-yl)amino)propyl)-3-(1H-pyrazol-3-yl)quinazolin-4(3H)-one]	9 nM	18 nM	4200 nM		
CC[C@H](Nc1nc(N)nc(N)c1Cl)c1nc2c(Cl)ccc(Cl)c2c(=O)n1-c1cc[nH]n1 [Compound 66, (S)-5,8-dichloro-2-(1-((2,6-diamino-5-chloropyrimidin-4-yl)amino)propyl)-3-(1H-pyrazol-3-yl)quinazolin-4(3H)-one]	36 nM	150 nM		> 10000 nM	
C[C@H](Nc1nc(N)nc(N)c1Cl)c1nc2c(F)ccc(Cl)c2c(=O)n1-c1cc[nH]n1 [Compound 67, (S)-5-chloro-2-(1-((2,6-diamino-5-chloropyrimidin-4-yl)amino)ethyl)-8-fluoro-3-(1H-pyrazol-3-yl)quinazolin-4(3H)-one]	3 nM	3 nM	2800 nM		
